Here are results for 2 molecules from patent publication US20260001875A1, “AMINOPYRIMIDINYL DERIVATIVES FOR THE TREATMENT OF PARKINSON'S DISEASE” (UNIVERSITY OF DUNDEE, priority 2022, published 2026).

What all share (assay type): cell-based
In one assay the target is LRRK2^R1441C (Mus musculus, UniProt Q5S006, R1441C). The experiment in a line: Western blot LRRK2 degradation in LRRK2^R1441C MEFs. The note with it: 4 h treatment. In general terms: In western blotting, separated proteins are transferred to a membrane and probed.
A further assay has as its target LRRK2 (Mus musculus, UniProt Q5S006). The experiment in a line: LRRK2 degradation in bone marrow-derived macrophages. From the text:
Bone marrow isolation and macrophage differentiation was modified from (Wells et al., 2004), employing L929 preconditioned medium as the source of M-CSF for differentiation. Briefly, scissors and forceps were used to dissect femurs and tibiae from adult mice, and muscle tissue was carefully removed from bones. Clean femurs and tibiae were placed in a tissue culture dish containing complete media. The ends of each bone were cut with scissors to expose bone marrow. Bone marrow was flushed with a 25-gauge needle attached to a 10 ml syringe containing complete media. Media containing bone marrow was passed through a 70 μm cell strainer and precursor cells were plated on non-tissue culture treated 10 cm bacteriological plates containing 10 ml complete media. This was marked as day 0 of isolation. On day three post-isolation, macrophages were topped up with 5 ml fresh complete media. On day seven post-isolation, macrophages were rinsed once with PBS and incubated with Versene for 5 minutes in a 37° C. 5% CO2 tissue culture incubator. Macrophages were detached with cell scrapers and were centrifuged at 1200 rpm for 5 minutes at room temperature. The Versene was aspirated and the remaining cell pellet was resuspended in complete media. The cell suspension was counted, and cells were seeded for experimental analysis in a 6-well format, in tissue culture treated dishes at a final cell density of one million cells per 6-well.
Culturing and passaging of adherent cell lines were carried out using aseptic technique in CL1 or CL2 (for PBMC isolation) biological safety cabinets. All cells were incubated in a 37° C. incubator with 5% CO2. Cell lines were regularly tested for mycoplasma contamination. For western blot assay, the cells were seeded in 6-well plates. […] The cell pellet was discarded, and supernatant was collected for analysis by quantitative immunoblotting. […] Protein concentrations of cell lysates were determined using the Bradford assay. […]

The next assay relates to Rab10 pThr73. Nature of the assay: Rab10 Thr73 dephosphorylation in LRRK2^R1441C MEFs. The note with it: Mus musculus; dose response, 4 h treatment. From the text:
Primary MEFs were generated as described in a previous study (Wiggin et al., Mol. Cell Biol. 2002 April; 22(8):2871-81.). Briefly, the uterine horn was collected from adult female mice at day E12.5 and transferred to a 10 cm tissue culture dish containing cold PBS. Two forceps were used to tear the yolk sacs to isolate each embryo. Forceps were cleaned thoroughly with 70% ethanol between each embryo isolation. The embryos were culled, and a tissue piece was collected in a PCR tube for genotyping. The red tissue of the embryo, which grows to become the heart and liver, was removed. The remainder of the embryo was minced with a scalpel blade and incubated with 7.5 ml trypsin-EDTA solution for 10 minutes in a 37° C. tissue culture CO2 incubator. The dish was removed from the incubator and checked under a light microscope for single cells. 7.5 ml complete media was added to the trypsinised cells, and the cell suspension was transferred to a 15 ml Falcon tube, centrifuged at 1200 rpm for 5 minutes at room temperature. […]
Culturing and passaging of adherent cell lines were carried out using aseptic technique in CL1 or CL2 (for PBMC isolation) biological safety cabinets. […] The cell pellet was discarded, and supernatant was collected for analysis by quantitative immunoblotting. […] Protein concentrations of cell lysates were determined using the Bradford assay. […]

Chain of LRRK2 (Q5S006 whole entry): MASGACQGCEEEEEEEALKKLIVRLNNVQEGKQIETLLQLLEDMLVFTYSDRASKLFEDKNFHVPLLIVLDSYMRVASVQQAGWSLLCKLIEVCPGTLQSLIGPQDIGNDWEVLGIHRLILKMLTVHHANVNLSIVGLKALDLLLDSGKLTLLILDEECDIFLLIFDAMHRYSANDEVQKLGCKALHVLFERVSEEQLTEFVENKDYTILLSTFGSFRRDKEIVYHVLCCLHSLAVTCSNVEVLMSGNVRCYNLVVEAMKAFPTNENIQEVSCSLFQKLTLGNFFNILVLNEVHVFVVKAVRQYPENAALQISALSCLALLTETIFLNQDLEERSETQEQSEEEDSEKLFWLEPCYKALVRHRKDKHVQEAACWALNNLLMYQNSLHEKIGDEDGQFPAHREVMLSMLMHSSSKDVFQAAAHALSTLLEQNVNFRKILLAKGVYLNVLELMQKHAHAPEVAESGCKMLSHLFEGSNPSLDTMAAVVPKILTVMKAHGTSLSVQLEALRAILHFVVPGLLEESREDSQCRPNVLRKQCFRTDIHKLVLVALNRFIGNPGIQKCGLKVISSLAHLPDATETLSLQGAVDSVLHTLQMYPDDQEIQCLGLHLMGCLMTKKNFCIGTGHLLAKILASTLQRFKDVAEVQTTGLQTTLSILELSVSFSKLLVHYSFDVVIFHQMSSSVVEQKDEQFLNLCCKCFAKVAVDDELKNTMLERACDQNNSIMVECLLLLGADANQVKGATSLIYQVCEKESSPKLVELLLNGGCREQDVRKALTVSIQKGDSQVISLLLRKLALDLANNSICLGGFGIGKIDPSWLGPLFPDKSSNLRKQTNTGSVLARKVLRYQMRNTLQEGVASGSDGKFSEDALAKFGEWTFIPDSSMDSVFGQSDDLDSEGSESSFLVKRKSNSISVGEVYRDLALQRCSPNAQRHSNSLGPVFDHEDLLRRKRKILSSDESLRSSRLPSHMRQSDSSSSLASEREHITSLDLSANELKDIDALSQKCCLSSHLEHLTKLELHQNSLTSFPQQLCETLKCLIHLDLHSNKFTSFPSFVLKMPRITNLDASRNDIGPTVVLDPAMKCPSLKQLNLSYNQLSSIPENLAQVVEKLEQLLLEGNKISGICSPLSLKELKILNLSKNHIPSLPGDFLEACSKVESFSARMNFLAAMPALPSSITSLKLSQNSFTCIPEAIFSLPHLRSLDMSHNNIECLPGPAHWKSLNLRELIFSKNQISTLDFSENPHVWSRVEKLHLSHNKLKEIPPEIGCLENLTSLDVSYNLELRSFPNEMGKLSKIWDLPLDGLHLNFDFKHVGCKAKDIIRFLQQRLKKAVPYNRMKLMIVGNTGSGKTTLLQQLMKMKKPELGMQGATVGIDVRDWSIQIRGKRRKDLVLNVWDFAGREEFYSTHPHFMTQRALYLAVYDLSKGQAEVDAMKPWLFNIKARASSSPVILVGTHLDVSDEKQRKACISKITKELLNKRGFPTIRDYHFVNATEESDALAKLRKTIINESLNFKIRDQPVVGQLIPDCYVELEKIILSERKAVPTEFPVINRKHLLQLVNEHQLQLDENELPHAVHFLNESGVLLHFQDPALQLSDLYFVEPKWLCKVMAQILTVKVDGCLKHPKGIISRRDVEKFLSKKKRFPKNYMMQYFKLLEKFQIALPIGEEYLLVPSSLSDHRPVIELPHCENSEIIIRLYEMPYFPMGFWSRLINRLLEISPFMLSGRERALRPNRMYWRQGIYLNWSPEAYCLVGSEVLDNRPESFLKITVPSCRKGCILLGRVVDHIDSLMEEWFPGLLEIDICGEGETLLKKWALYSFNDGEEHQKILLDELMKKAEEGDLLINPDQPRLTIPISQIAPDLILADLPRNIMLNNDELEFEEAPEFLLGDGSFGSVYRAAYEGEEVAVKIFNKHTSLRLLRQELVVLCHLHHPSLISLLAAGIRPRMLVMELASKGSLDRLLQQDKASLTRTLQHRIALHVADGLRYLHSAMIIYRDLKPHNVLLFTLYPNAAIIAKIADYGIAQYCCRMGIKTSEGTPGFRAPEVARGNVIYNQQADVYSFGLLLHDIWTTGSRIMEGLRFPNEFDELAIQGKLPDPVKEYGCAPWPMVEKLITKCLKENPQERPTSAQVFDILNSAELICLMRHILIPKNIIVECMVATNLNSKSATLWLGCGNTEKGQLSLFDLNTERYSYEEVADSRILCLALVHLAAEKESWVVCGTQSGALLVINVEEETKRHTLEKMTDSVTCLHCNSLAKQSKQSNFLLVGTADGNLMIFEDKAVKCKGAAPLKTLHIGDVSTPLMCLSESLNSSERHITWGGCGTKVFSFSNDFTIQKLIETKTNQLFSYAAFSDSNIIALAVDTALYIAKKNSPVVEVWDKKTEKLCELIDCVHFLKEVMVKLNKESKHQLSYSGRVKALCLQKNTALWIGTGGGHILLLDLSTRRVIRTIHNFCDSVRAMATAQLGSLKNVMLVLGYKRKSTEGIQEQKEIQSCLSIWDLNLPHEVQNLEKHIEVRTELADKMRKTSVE
Chain of LRRK2^R1441C (Q5S006 whole entry R1441C): as the sequence (Q5S006 whole entry) above, with R1441C counted along it

For orientation: EC50 means the midpoint of the concentration-response curve. Low readings indicate a more potent agent, high ones a less potent agent. Regarding `CNc1nc(Nc2ccc(C(=O)N3CCN(C[C@H]4CC[C@H](CSC(C)(C)[C@H](NC(=O)C5(F)CC5)C(=O)N5C[C@@H](O)CC5C(=O)NCc5ccc(-c6scnc6C)cc5)CC4)CC3)cc2OC)ncc1Cl` (stereo partly drawn) [Cis-XL01126, (2S,4S)-1-((R)-3-((((1r,4R)-4-((4-(4-((5-chloro-4-(methylamino)pyrimidin-2-yl)amino)-3-methoxybenzoyl)piperazin-1-yl)methyl)cyclohexyl)methyl)thio)-2-(1-fluorocyclopropane-1-carboxamido)-3-methylbutanoyl)-4-hydroxy-N-(4-(4-methylthiazol-5-yl)benzyl)pyrrolidine-2-carboxamide], the “LRRK2^R1441C degradation (in words)” value at LRRK2^R1441C is recorded as “cannot degrade LRRK2^R1441C”. In addition, the “LRRK2 degradation in macrophages (in words)” value on LRRK2 is recorded as “cannot degrade LRRK2”. The molecule further showed an EC50 with Rab10 pThr73 of 0.158 µM.

For orientation: DC50 means the concentration at which degradation of the target reaches its halfway point. As for `CNc1nc(Nc2ccc(C(=O)N3CCN(C[C@H]4CC[C@H](CSC(C)(C)[C@H](NC(=O)C5(F)CC5)C(=O)N5C[C@H](O)CC5C(=O)NCc5ccc(-c6scnc6C)cc5)CC4)CC3)cc2OC)ncc1Cl` (stereo partly drawn) [XL01126, (2S,4R)-1-((R)-3-((((1R,4R)-4-((4-(4-((5-chloro-4-(methylamino)pyrimidin-2-yl)amino)-3-methoxybenzoyl)piperazin-1-yl)methyl)cyclohexyl)methyl)thio)-2-(1-fluorocyclopropane-1-carboxamido)-3-methylbutanoyl)-4-hydroxy-N-(4-(4-methylthiazol-5-yl)benzyl)pyrrolidine-2-carboxamide], at LRRK2^R1441C (dose response), the “Dmax of LRRK2^R1441C degradation” value is listed as 80-90%. Further, on LRRK2, the “LRRK2 protein level reduced in macrophages” value is 80-90%. The same molecule registered a 50% degradation concentration (DC50) on LRRK2 (dose response) of 0.055 µM. For the same molecule, the concentration for a half-maximal effect (EC50) in the assay with Rab10 pThr73 amounted to 0.03 µM.
